According to patent US11434212B2, “Bicyclic compound as a caspase inhibitor” (CHIA TAI TIANQING PHARMACEUTICAL GROUP CO., LTD., priority 2017, dated 2022):

How the values were obtained:
Format in all cases: biochemical
Details in all cases: fluorogenic substrate 50 μM; test concentrations 1000 nM to 0.32 nM
Caspase-1 = target: T1, Caspase-1 (Homo sapiens, UniProt P29466); assay: In vitro inhibitory activity on Caspase-1 (BioVision Caspase-1 Inhibitor Screening Kit)
T1 construct: purchased BioVision K151-100
T1 sequence (P29466 120-297 limits assumed): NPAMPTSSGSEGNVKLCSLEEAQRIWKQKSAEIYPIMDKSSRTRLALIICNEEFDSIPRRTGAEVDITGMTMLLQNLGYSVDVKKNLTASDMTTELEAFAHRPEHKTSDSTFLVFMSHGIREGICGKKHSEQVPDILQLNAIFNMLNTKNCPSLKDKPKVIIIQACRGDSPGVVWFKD
T1 sequence (P29466 317-404 limits assumed): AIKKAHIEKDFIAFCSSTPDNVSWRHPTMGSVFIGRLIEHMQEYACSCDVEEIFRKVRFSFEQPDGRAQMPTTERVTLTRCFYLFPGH
Procedure: (§1) Caspase Inhibitor Screening Kit for BioVision was used in this experiment to test the inhibitory activity of the test compounds on Caspase.
Caspase-1 Inhibitor Screening Kit (BioVision #K151-100)
(§2) Note: Each caspase enzymatic experiment uses the reagents in corresponding kit thereof. Each enzyme was dissolved in 550 μl of the corresponding 2× reaction buffer, sub-packed and stored at −80° C., respectively.
(§3) 1) The compound was diluted to a 200*test concentration with DMSO via the multiple dilution, then to a 2*test concentration with ddH2O, and added to a 384-well experimental plate at 12.5 μl per well. Test compounds and control compounds were tested at 6 concentration points, test concentrations ranging from 1000 nM to 0.32 nM. The ddH2O containing 1% DMSO was added to the 0% inhibition control well, and a high concentration of the control compound was added to the 100% inhibition control well (final concentration: 5 μM).
(§4) 2) 2× reaction buffer containing 10 mM DTT was prepared. The enzyme caspase stock solution was diluted 5-fold with 2× reaction buffer containing 10 mM DTT and added to a 384-well experimental plate at 6.25 μl per well. After being mixed, the enzyme and compounds were incubated at 37° C. for 30 minutes.
(§5) 3) The fluorogenic substrate of the enzyme caspase was diluted 5-fold with 2× reaction buffer containing 10 mM DTT, and then added to a 384-well experimental plate at 6.25 μl per well. The total reaction volume was 25 μl, the final concentration of the substrate was 50 μM, and the final concentration of DMSO was 0.5%. After the substrate was added, the 384-well experimental plate was incubated at 37° C. for 30 minutes.
(§6) 4) The fluorescence intensity (excitation light wavelength was 400 nm, emission light wavelength was 505 nm) was measured by using a multi-function microplate reader. Fluorescence intensity was used to calculate the inhibitory effect of the compounds on Caspase. GraphPad Prism software was used for fitting compound inhibition curves and calculating IC50 values.

Caspase-3 = target: T2, Caspase-3 (Homo sapiens, UniProt P42574); assay: In vitro inhibitory activity on Caspase-3 (BioVision Caspase-3 Inhibitor Screening Kit)
T2 construct: purchased BioVision K153-100
T2 sequence (P42574 29-175 limits assumed): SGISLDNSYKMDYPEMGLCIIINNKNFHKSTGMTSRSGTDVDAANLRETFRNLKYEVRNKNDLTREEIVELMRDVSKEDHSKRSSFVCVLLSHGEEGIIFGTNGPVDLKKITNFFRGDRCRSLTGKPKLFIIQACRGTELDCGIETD
T2 sequence (P42574 176-277 limits assumed): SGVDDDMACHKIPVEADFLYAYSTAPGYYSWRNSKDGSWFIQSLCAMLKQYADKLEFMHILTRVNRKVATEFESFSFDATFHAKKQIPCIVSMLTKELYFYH
Procedure: as §1
Caspase-3 Inhibitor Screening Kit (BioVision #K153-100)
as §2, §3, §4, §5, §6

Caspase-8 = target: T3, Caspase-8 (Homo sapiens, UniProt Q14790); assay: In vitro inhibitory activity on Caspase-8 (BioVision Caspase-8 Inhibitor Screening Kit)
T3 construct: purchased BioVision K158-100
T3 sequence (Q14790 217-374 limits assumed): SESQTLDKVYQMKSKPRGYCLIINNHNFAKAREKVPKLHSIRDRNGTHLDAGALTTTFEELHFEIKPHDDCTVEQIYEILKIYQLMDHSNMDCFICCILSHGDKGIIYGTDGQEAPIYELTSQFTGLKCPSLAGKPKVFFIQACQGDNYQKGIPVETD
T3 sequence (Q14790 385-479 limits assumed): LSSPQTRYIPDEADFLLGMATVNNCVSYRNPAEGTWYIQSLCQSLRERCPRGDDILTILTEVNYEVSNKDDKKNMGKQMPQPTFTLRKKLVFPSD
Procedure: as §1
Caspase-8 Inhibitor Screening Kit (BioVision #K158-100)
as §2, §3, §4, §5, §6

| IC50 (Caspase-1) | IC50 (Caspase-3) | IC50 (Caspase-8) | SMILES |
| --- | --- | --- | --- |
| 4.2 nM | 9.5 nM | 31.4 nM | C[C@H](NC(=O)c1cc(-c2ccccc2Cl)no1)C(=O)N[C@@H](CC(=O)O)C(=O)COc1c(F)c(F)cc(F)c1F [Example 17] |
| 7.5 nM | 26.1 nM | 62.1 nM | C[C@H](NC(=O)c1cc(-c2ccccc2Cl)on1)C(=O)N[C@H](CC(=O)O)C(=O)COc1c(F)c(F)cc(F)c1F [Example 18] |
